Experimental data as given in patent publication US9695155B2, “Herbicidal substituted pyrimidinyloxy benzene compounds” (E. I. DU PONT DE NEMOURS AND COMPANY, priority 2013, dated 2017).

What was measured:
[1] = test system: Russian thistle; assay: Test D preemergence; type: in vivo, Salsola kali; parameters: key: 0 = no effect, 100 = complete control
Description: (§1) Seeds of plant species selected from bluegrass (annual bluegrass, Poa annua), blackgrass (Alopecurus myosuroides), canarygrass (littleseed canarygrass, Phalaris minor), chickweed (common chickweed, Stellaria media), galium (catchweed bedstraw, Galium aparine), bromegrass, downy (downy bromegrass, Bromus tectorum), field poppy (Papaver rhoeas), field violet (Viola arvensis), green foxtail (Setaria viridis), deadnettle (henbit deadnettle, Lamium amplexicaule), Italian ryegrass (Lolium multiflorum), kochia (Kochia scoparia), lambsquarters (Chenopodium album), oilseed rape (Brassica napus), pigweed (Amaranthus retroflexus), chamomile (scentless chamomile, Matricaria inodora), Russian thistle (Salsola kali), speedwell (bird's-eye speedwell, Veronica persica), spring barley (Hordeum vulgare), spring wheat (Triticum aestivum), wild buckwheat (Polygonum convolvulus), wild mustard (Sinapis arvensis), wild oat (Avena fatua), wild radish (Raphanus raphanistrum), windgrass (Apera spica-venti), winter barley (Hordeum vulgare), and winter wheat (Triticum aestivum) were planted into a silt loam soil and treated preemergence with test chemicals formulated in a non-phytotoxic solvent mixture which included a surfactant.
(§2) At the same time, these species were planted in pots containing Redi-Earth® planting medium (Scotts Company, 14111 Scottslawn Road, Marysville, Ohio 43041) comprising spaghnum peat moss, vermiculite, wetting agent and starter nutrients and treated with postemergence applications of the test chemicals formulated in the same manner. Plants ranged in height from 2 to 18 cm (1- to 4-leaf stage). Treated plants and controls were maintained in a controlled growth environment for 7 to 21 days after which time all species were compared to controls and visually evaluated. Plant response ratings, summarized in Table D, are based on a scale of 0 to 100 where 0 is no effect and 100 is complete control. A dash (-) response means no test result.

[2] = test system: Russian thistle; assay: Test D postemergence; type: in vivo, Salsola kali
Description: as §1, §2

[3] = test system: barley, winter; assay: Test C postemergence; type: in vivo, Hordeum vulgare; conditions: for Plant response rating (0 to 100), Barley: postemergence; for Plant response rating, Barley: Postemergence, scale 0 to 100 (0 no effect, 100 complete control)
Description: (§3) Seeds of plant species selected from blackgrass (Alopecurus myosuroides), Italian ryegrass (Lolium multiflorum), wheat, winter (winter wheat, Triticum aestivum), galium (catchweed bedstraw, Galium aparine), corn (Zea mays), large (Lg) crabgrass (Digitaria sanguinalis), giant foxtail (Setaria faberii), johnsongrass (Sorghum halepense), lambsquarters (Chenopodium album), morningglory (Ipomoea coccinea), yellow nutsedge (Cyperus esculentus), pigweed (Amaranthus retroflexus), ragweed (common ragweed, Ambrosia elatior), soybean (Glycine max), barnyardgrass (Echinochloa crus-galli), oilseed rape (Brassica napus), waterhemp (common waterhemp, Amaranthus rudis), kochia (Kochia scoparia), wild oat (Avena fatua), surinam grass (Brachiaria decumbens), foxtail, green (green foxtail, Setaria viridis), goosegrass (Eleusine indica), bromegrass, downy (downy bromegrass, Bromus tectorum), nightshade (eastern black nightshade, Solanum ptycanthum), cocklebur (common cocklebur, Xanthium strumarium), cupgrass, woolly (woolly cupgrass, Eriochloa villosa), bermudagrass (Cynodon dactylon), sunflower, (common oilseed sunflower, Helianthus annuus), Russian thistle (Salsola kali), and velvetleaf (Abutilon theophrasti) were planted into a blend of loam soil and sand and treated preemergence with test chemicals formulated in a non-phytotoxic solvent mixture which included a surfactant.
(§4) At the same time, plants selected from these crop and weed species and also barley, winter (winter barley, Hordeum vulgare), windgrass (Apera spica-venti), chickweed (common chickweed, Stellaria media), deadnettle (henbit deadnettle, Lamium amplexicaule), and canarygrass (littleseed canarygrass, Phalaris minor) were planted in pots containing Redi-Earth® planting medium (Scotts Company, 14111 Scottslawn Road, Marysville, Ohio 43041) comprising spaghnum peat moss, vermiculite, wetting agent and starter nutrients and treated with postemergence applications of test chemicals formulated in the same manner. Plants ranged in height from 2 to 18 cm (1- to 4-leaf stage) for postemergence treatments. Treated plants and controls were maintained in a greenhouse for 13 to 15 days, after which time all species were compared to controls and visually evaluated. Plant response ratings, summarized in Table C, are based on a scale of 0 to 100 where 0 is no effect and 100 is complete control. A dash (-) response means no test result.

[4] = test system: goosegrass; assay: Test C postemergence; type: in vivo, Eleusine indica; conditions: for Plant response rating (0 to 100), Goosegrass: postemergence; for Plant response rating, Goosegrass: Postemergence, scale 0 to 100 (0 no effect, 100 complete control)
Description: as §3, §4

[5] = test system: foxtail, green; assay: Test C postemergence; type: in vivo, Setaria viridis; conditions: for Plant response rating (0 to 100), Foxtail, Green: postemergence; for Plant response rating, Foxtail, Green: Postemergence, scale 0 to 100 (0 no effect, 100 complete control)
Description: as §3, §4

[6] = test system: cupgrass, woolly; assay: Test C postemergence; type: in vivo, Eriochloa villosa; conditions: for Plant response rating (0 to 100), Cupgrass, Woolly: postemergence; for Plant response rating, Cupgrass, Woolly: Postemergence, scale 0 to 100 (0 no effect, 100 complete control)
Description: as §3, §4

Clc1cnc(Oc2ccccc2-n2cc(Cl)cn2)nc1 [Compound 3]
Plant response rating, Russian Thistle ([1]; 16 g ai/ha, scale 0 (no effect) to 100 (complete control)): 0
Plant response rating, Russian Thistle ([1]; 31 g ai/ha, scale 0 (no effect) to 100 (complete control)): 0
Plant response rating, Russian Thistle ([1]; 62 g ai/ha, scale 0-100): 30
Plant response rating, Russian Thistle ([1]; 125 g ai/ha, scale 0-100): 40
Plant response rating, Russian Thistle ([1]; 250 g ai/ha, scale 0-100): 40
Plant response rating, Russian Thistle ([2]; 16 g ai/ha, scale 0-100): 0
Plant response rating, Russian Thistle ([2]; 31 g ai/ha, scale 0 to 100 (0 no effect, 100 complete control)): 10
Plant response rating, Russian Thistle ([2]; 62 g ai/ha, scale 0 to 100 (0 no effect, 100 complete control)): 10
Plant response rating, Russian Thistle ([2]; 125 g ai/ha, scale 0 to 100 (0 no effect, 100 complete control)): 10
Plant response rating, Russian Thistle ([2]; 250 g ai/ha, scale 0 to 100 (0 no effect, 100 complete control)): 20

Fc1cnc(Oc2ccccc2-n2cc(Br)cn2)nc1 [Compound 10, 2-[2-(4-bromo-1H-pyrazol-1-yl)phenoxy]-5-fluoropyrimidine]
Plant response rating (0 to 100), Barley ([3]; 125 g ai/ha): 5
Plant response rating (0 to 100), Barley ([3]; 250 g ai/ha): 10
Plant response rating, Barley ([3]; 31 g ai/ha, 13 to 15 days): 0
Plant response rating, Barley ([3]; 62 g ai/ha): 5
Plant response rating (0 to 100), Goosegrass ([4]; 125 g ai/ha): 5
Plant response rating (0 to 100), Goosegrass ([4]; 250 g ai/ha): 10
Plant response rating, Goosegrass ([4]; 31 g ai/ha, 13 to 15 days): 0
Plant response rating, Goosegrass ([4]; 62 g ai/ha): 5
Plant response rating (0 to 100), Foxtail, Green ([5]; 125 g ai/ha): 0
Plant response rating (0 to 100), Foxtail, Green ([5]; 250 g ai/ha): 30
Plant response rating, Foxtail, Green ([5]; 31 g ai/ha, 13 to 15 days): 0
Plant response rating, Foxtail, Green ([5]; 62 g ai/ha): 0
Plant response rating (0 to 100), Cupgrass, Woolly ([6]; 125 g ai/ha): 5
Plant response rating (0 to 100), Cupgrass, Woolly ([6]; 250 g ai/ha): 15
Plant response rating, Cupgrass, Woolly ([6]; 31 g ai/ha, 13 to 15 days): 0
Plant response rating, Cupgrass, Woolly ([6]; 62 g ai/ha): 5
